Structures can show the parent of a compound that is named as a salt.
Tests used:
Format in all cases: cell-based
hOX2R [1] = target: T1, hOX2R (Homo sapiens, UniProt O43614); assay: Intracellular calcium measurements using stable-replicating cells, Method B (CHO cells, FLIPR Tetra), OX2; settings: orexin A at EC75, read-out: pIC50 OX2 (converted)
T1 sequence (O43614 1-444): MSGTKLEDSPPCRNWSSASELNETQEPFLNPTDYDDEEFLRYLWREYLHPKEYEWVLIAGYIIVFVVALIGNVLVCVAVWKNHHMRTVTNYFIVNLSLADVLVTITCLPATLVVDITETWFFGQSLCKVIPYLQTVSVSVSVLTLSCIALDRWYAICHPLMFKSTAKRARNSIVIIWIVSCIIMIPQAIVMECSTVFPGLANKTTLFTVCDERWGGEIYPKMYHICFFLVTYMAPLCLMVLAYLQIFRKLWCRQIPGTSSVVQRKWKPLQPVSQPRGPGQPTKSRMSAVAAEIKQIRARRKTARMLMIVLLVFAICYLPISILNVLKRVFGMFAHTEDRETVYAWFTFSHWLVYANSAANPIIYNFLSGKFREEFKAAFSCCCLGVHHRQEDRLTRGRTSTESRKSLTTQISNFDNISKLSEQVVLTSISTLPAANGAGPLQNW
Method: (§1) Intracellular Calcium Measurements Using Stable-replicating Cells:
(§2) Human OX1 or human OX2 receptor expressing CHO cells are plated into 384 well black, clear bottom, CellBIND plates at a seeding density of 10,000 cells/75 μL growth media. The seeded plates are incubated at 37° C. in air supplemented with 5% CO2 overnight.
(§3) The next day media is removed and replaced with 30 μL/well of cell loading buffer (a vial of Calcium 5 is solubilized in 20 mL of assay buffer) and the cells incubated for 1 hr at 37° C. The serially diluted test compounds (10 μL/well) are added to the cell plate by the FLIPR Tetra and the addition is monitored for 5 mins by the instrument. The cell plate is then removed and incubated for additional 25 mins in a humidified incubator at […] prior to being placed back into the FLIPR Tetra. Finally 10 μL of orexin A in assay buffer +0.1% (w/v) bovine serum albumin is dispensed by the FLIPR Tetra at an EC75 concentration determined for each assay run. Fluorescence is measured at excitation and emission wavelengths of 485 nm and 525 nm respectively and data analyzed using GraphPad Prism for the EC75 value of orexin A and Aplus to determine an IC50 value for each test compound.

hOX1R [2] = target: T2, hOX1R (Homo sapiens, UniProt O43613); assay: Intracellular calcium measurements using stable-replicating cells, Method B (CHO cells, FLIPR Tetra), OX1; settings: orexin A at EC75, read-out: pIC50 OX1 (converted)
T2 sequence (O43613 1-425): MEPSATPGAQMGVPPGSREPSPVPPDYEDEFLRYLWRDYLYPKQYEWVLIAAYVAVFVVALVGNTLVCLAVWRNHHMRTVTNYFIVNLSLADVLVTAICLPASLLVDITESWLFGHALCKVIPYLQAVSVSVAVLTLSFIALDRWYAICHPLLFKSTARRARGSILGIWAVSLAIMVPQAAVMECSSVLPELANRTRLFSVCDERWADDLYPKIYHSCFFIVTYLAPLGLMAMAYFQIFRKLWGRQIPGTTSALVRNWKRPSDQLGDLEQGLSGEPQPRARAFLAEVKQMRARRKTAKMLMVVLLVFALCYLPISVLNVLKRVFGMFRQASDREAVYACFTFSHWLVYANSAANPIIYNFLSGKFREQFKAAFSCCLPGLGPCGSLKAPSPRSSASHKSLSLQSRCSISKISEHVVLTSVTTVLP
Method: as §1, §2, §3

hOX2R [3] = target: T1, hOX2R; assay: Intracellular calcium measurements using division-arrested cells, OX2; settings: agonist orexin B at 2×EC50, * = single experiment, otherwise average of at least two, read-out: pIC50 OX2 (converted)
Method: (§4) Intracellular Calcium Measurements Using Division-arrested Cells (Table 1):
(§5) Test compounds are prepared as 10 mM stock solutions in DMSO, then serially diluted in half log concentrations with DMSO followed by dilution with assay buffer (HBSS (Sigma-Aldrich, H8264) containing 20 mM HEPES (Sigma-Aldrich, H4034), 0.1% (w/v) bovine serum albumin and adjusted to pH 7.4) to a top final assay concentration of 10 μM.
(§6) Human OX1 (CT-A474) and human OX2 (CT-A475) receptor-expressing division-arrested cells are plated into 384 well black, clear bottom, cell-bind plates at a seeding density of 10,000 cells/50 μL growth media. The seeded plates are incubated at 37° C. in air supplemented with 5% CO2 for 16 hrs.
(§7) The media is removed and replaced with 30 μL/well of cell loading buffer (a vial of Calcium 5 is solubilized in 22 mL of assay buffer to which a freshly prepared 250 mM solution of probenecid in 1:1 1M NaOH to assay buffer (200 μL) is added) and the cells incubated for 1 hr at 37° C. The serially diluted test compounds (10 μL/well) are added to the plate, which is then incubated for 10 mins and placed in a FlexStation III reader.

hOX1R [4] = target: T2, hOX1R; assay: Intracellular calcium measurements using division-arrested cells, OX1; settings: agonist orexin A at 2×EC50, * = single experiment, otherwise average of at least two, read-out: pIC50 OX1 (converted)
Method: as §4, §5, §6, §7

Compound	IC50 (hOX2R [1])	IC50 (hOX1R [2])	IC50 (hOX2R [3])	IC50 (hOX1R [4])
CC[C@@H](CN(C)c1ncc(C(F)(F)F)cn1)N(C)C(=O)c1nc(C)ccc1-n1nccn1 [Example 82, (S)—N,6-dimethyl-N-(1-(methyl(5-(trifluoromethyl)pyrimidin-2-yl)amino)butan-2-yl)-3-(2H-1,2,3-triazol-2-yl)picolinamide]	> 10000 nM	7.94 nM	–	–
CC[C@@H](CNc1ccc(C(F)(F)F)cn1)N(CC)C(=O)c1nc(C)ccc1-n1nccn1 [Example 71, (S)—N-ethyl-6-methyl-3-(2H-1,2,3-triazol-2-yl)-N-(1-((5-(trifluoromethyl)pyridin-2-yl)amino)butan-2-yl)picolinamide]	316 nM	1 nM	–	–
Cc1ccc(-n2nccn2)c(C(=O)N(C)[C@H](CNc2ncc(C(F)(F)F)cn2)C2CC2)n1 [Example 74, (S)—N-(1-cyclopropyl-2-((5-(trifluoromethyl)pyrimidin-2-yl)amino)ethyl)-N,6-dimethyl-3-(2H-1,2,3-triazol-2-yl)picolinamide]	> 10000 nM	2000 nM	–	–
CC[C@@H](CNc1ccc2ncccc2n1)N(C)C(=O)c1nc(C)ccc1-n1nccn1 [Example 76, (S)—N-(1-((1,5-naphthyridin-2-yl)amino)butan-2-yl)-N,6-dimethyl-3-(2H-1,2,3-triazol-2-yl)picolinamide]	> 2000 nM	25.1 nM	–	–
CC[C@@H](CNc1ncc(C(F)(F)F)cn1)N(CC)C(=O)c1nc(C)ccc1-n1nccn1 [Example 73, (S)—N-ethyl-6-methyl-3-(2H-1,2,3-triazol-2-yl)-N-(1-((5-(trifluoromethyl)pyrimidin-2-yl)amino)butan-2-yl)picolinamide]	> 1000 nM	–	–	–
CC[C@@H](CNc1ncc2ccccc2n1)N(CC)C(=O)c1nc(C)ccc1-n1nccn1 [Example 72, (S)—N-ethyl-6-methyl-N-(1-(quinazolin-2-ylamino)butan-2-yl)-3-(2H-1,2,3-triazol-2-yl)picolinamide]	–	1.58 nM	–	–
Cc1ccc(-n2nccn2)c(C(=O)N(C)[C@H](CNc2ncc3ccccc3n2)C(C)C)n1 [Example 68, (S)—N,6-dimethyl-N-(3-methyl-1-(quinazolin-2-ylamino)butan-2-yl)-3-(2H-1,2,3-triazol-2-yl)picolinamide]	> 1000 nM	15.8 nM	–	–
CC[C@@H](CNc1ccc(Cl)cn1)N(C)C(=O)c1cc(OC)c(C)cc1-n1nccn1 [Example 87, (S)—N-(1-((5-chloropyridin-2-yl)amino)butan-2-yl)-5-methoxy-N,4-dimethyl-2-(2H-1,2,3-triazol-2-yl)benzamide]	–	3.98 nM	–	–
Cc1ccc(-n2nccn2)c(C(=O)N(C)[C@H](CNc2ncc(C(F)(F)F)cn2)C(C)C)n1 [Example 66, (S)—N,6-dimethyl-N-(3-methyl-1-((5-(trifluoromethyl)pyrimidin-2-yl)amino)butan-2-yl)-3-(2H-1,2,3-triazol-2-yl)picolinamide]	> 631 nM	12.6 nM	–	–
CC[C@@H](CNc1cnc2ccccc2n1)N(C)C(=O)c1nc(C)ccc1-n1nccn1 [Example 65, (S)—N,6-dimethyl-N-(1-(quinoxalin-2-ylamino)butan-2-yl)-3-(2H-1,2,3-triazol-2-yl)picolinamide]	794 nM	2 nM	–	–
CC[C@@H](CNc1ncc(C(F)(F)F)cn1)N(C)C(=O)c1nc(C)ccc1-n1cccn1 [Example 90, (S)—N,6-dimethyl-3-(1H-pyrazol-1-yl)-N-(1-((5-(trifluoromethyl)pyrimidin-2-yl)amino)butan-2-yl)picolinamide formic acid salt]	> 1000 nM	2 nM	–	–
CC[C@@H](CNc1ncc(C(F)(F)F)cn1)N(C)C(=O)c1nc(C)ccc1-n1cncn1 [Example 89, (S)—N,6-dimethyl-3-(1H-1,2,4-triazol-1-yl)-N-(1-((5-(trifluoromethyl)pyrimidin-2-yl)amino)butan-2-yl)picolinamide formic acid salt]	> 10000 nM	2000 nM	–	–
Cc1ccc(-n2nccn2)c(C(=O)N(C)[C@H](CNc2cnc(C(F)(F)F)cn2)C(C)C)n1 [Example 67, (S)—N,6-dimethyl-N-(3-methyl-1-((5-(trifluoromethyl)pyrazin-2-yl)amino)butan-2-yl)-3-(2H-1,2,3-triazol-2-yl)picolinamide]	–	7.94 nM	–	–
CC[C@@H](CN(CCOC)c1ncc(C(F)(F)F)cn1)N(C)C(=O)c1nc(C)ccc1-n1nccn1 [Example 83, (S)—N-(1-((2-methoxyethyl)(5-(trifluoromethyl)pyrimidin-2-yl)amino)butan-2-yl)-N,6-dimethyl-3-(2H-1,2,3-triazol-2-yl)picolinamide]	> 1000 nM	12.6 nM	–	–
CC(C)C[C@@H](CNc1ccc(Cl)cn1)N(C)C(=O)c1ccccc1-c1ccccc1 [Example 8, (S)—N-(1-((5-chloropyridin-2-yl)amino)-4-methylpentan-2-yl)-N-methyl-[1,1′-biphenyl]-2-carboxamide]	–	–	> 10000 nM	794 nM
CC[C@@H](CNc1ccc(Cl)cn1)N(C)C(=O)c1cc(N(C)C)ccc1-n1nccn1 [Example 23, (S)—N-(1-((5-chloropyridin-2-yl)amino)butan-2-yl)-5-(dimethylamino)-N-methyl-2-(2H-1,2,3-triazol-2-yl)benzamide]	–	–	2510 nM	25.1 nM
CC[C@@H](CNc1cnc(C(F)(F)F)cn1)N(CC)C(=O)c1nc(C)ccc1-n1nccn1 [Example 70, (S)—N-ethyl-6-methyl-3-(2H-1,2,3-triazol-2-yl)-N-(1-((5-(trifluoromethyl)pyrazin-2-yl)amino)butan-2-yl)picolinamide]	–	1.58 nM	–	–
CC[C@@H](CNc1ncc(C(F)(F)F)cn1)N(C)C(=O)c1nc(C)ccc1-c1ncccn1 [Example 84, (S)—N,6-dimethyl-3-(pyrimidin-2-yl)-N-(1-((5-(trifluoromethyl)pyrimidin-2-yl)amino)butan-2-yl)picolinamide formic acid salt]	–	2 nM	–	–
CC[C@@H](CNc1ccc(Cl)cn1)N(C)C(=O)c1cc(F)ccc1-n1nccn1 [Example 18, (S)—N-(1-((5-chloropyridin-2-yl)amino)butan-2-yl)-5-fluoro-N-methyl-2-(2H-1,2,3-triazol-2-yl)benzamide]	–	–	> 10000 nM	79.4 nM
CC[C@@H](CNc1ncc(C(F)(F)F)cn1)N(C)C(=O)c1nc(OC)ccc1-n1nccn1 [Example 92, (S)-6-methoxy-N-methyl-3-(2H-1,2,3-triazol-2-yl)-N-(1-((5-(trifluoromethyl)pyrimidin-2-yl)amino)butan-2-yl)picolinamide]	–	31.6 nM	–	–
CC(C)[C@@H](CNC(=O)Nc1ccccc1)N(C)C(=O)c1ccccc1-c1ccccc1 [Example 58, (S)—N-methyl-N-(3-methyl-1-(3-phenylureido)butan-2-yl)-[1,1′-biphenyl]-2-carboxamide]	–	–	> 5010 nM	126 nM

Reference: patent publication US10611760B2, “Therapeutic compounds as inhibitors of the orexin-1 receptor” (C4X Discovery Limited, priority 2014, dated 2020)
